Source: patent publication US10669272B2, “Substituted naphthyridinone compounds useful as T cell activators” (BRISTOL-MYERS SQUIBB COMPANY, priority 2018, dated 2020)
Where a name gives a salt, the structure may show the parent alone. Read-outs that look alike come from different tables or passages of the source.

Experiments:
Human venous whole blood = test: Human whole blood IFN-γ assay; assay type: cell-based;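 further: blood from healthy donors exposed to compound for 1 h before stimulation with anti-CD3 and anti-CD28 at 1 µg/mL each, IFN-γ quantified in supernatant by AlphaLISA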
Procedure: Human Whole Blood IFN-γ Assay
Human venous whole blood (22.5 μL per well), obtained from healthy donors, was pre-treated with compounds for one hour at 37° C. in a humidified 95% air/5% CO2 incubator. The blood was stimulated with 2.5 μL anti-human CD3 and anti-CD28 mAb at a final concentration of 1 μg/mL each for 24 hours at 37° C. IFN-γ in the supernatants was measured using AlphLISA kit (Cat # AL217).

human DGKζ = target: T1, human DGKζ (Homo sapiens, UniProt Q13574); test: DGKζ LIPGLO assay (extruded liposome substrate), in vitro DGK inhibition; assay type: biochemical; conditions: read-out: DGKz LIPGLO IC50
T1 construct: TVMV protease cleavage site (C); Hexa-His (C); made in house; host or cells: Sf9 insect cells (baculovirus, Bac-to-Bac)
T1 sequence (Q13574 with tags, fused parts or gaps isoform Q13574-4): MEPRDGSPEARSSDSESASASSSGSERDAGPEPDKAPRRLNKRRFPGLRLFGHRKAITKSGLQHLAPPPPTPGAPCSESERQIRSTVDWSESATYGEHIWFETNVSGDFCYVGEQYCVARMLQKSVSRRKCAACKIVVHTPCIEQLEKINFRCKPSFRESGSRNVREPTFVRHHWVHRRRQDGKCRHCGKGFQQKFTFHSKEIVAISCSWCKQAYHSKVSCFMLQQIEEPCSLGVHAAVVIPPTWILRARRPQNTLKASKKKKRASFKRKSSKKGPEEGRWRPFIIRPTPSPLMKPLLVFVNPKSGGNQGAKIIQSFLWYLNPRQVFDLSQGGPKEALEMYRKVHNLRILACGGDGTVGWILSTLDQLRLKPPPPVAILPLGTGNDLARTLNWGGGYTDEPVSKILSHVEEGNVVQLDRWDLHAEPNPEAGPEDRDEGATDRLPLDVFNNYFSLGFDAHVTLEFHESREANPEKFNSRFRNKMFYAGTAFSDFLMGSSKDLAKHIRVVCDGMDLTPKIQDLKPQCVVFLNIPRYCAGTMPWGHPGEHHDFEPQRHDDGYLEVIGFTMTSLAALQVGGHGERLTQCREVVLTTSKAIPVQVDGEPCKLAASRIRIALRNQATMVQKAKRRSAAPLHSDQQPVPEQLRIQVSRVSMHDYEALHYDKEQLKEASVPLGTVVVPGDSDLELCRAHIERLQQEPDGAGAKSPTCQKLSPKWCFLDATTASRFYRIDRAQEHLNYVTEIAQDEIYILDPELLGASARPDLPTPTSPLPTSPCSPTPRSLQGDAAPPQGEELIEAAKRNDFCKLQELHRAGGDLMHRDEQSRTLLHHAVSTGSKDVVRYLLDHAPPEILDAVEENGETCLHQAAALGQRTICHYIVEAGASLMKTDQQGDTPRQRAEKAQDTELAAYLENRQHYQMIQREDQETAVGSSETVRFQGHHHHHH

human DGKα = target: T2, human DGKα (Homo sapiens, UniProt P23743); test: DGKα LIPGLO assay (extruded liposome substrate), in vitro DGK inhibition; assay type: biochemical; conditions: read-out: DGKa LIPGLO IC50
T2 construct: TVMV protease cleavage site (C); Hexa-His (C); made in house; host or cells: Sf9 insect cells (baculovirus, Bac-to-Bac)
T2 sequence (P23743 with tags, fused parts or gaps): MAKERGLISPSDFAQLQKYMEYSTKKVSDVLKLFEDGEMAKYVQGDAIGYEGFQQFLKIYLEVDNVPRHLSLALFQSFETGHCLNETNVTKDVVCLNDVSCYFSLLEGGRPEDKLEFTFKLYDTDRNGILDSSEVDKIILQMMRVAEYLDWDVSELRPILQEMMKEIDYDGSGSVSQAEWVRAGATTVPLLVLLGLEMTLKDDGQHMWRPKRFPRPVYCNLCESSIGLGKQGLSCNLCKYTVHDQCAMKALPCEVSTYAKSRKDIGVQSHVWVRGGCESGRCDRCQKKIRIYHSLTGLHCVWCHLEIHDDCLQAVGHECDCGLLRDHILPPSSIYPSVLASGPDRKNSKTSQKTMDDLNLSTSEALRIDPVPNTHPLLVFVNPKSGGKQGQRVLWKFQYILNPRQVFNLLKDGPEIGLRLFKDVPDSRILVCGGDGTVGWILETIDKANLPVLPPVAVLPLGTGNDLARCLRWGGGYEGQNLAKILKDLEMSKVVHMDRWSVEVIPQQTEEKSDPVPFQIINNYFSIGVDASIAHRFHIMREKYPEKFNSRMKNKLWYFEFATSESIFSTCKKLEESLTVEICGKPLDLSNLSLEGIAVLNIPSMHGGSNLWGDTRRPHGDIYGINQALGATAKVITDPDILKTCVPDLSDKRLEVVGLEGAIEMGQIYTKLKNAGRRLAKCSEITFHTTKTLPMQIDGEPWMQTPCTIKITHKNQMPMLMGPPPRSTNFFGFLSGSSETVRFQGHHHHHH

[1] = human whole blood; normalized to 3 μM reference compound with anti-CD3 plus anti-CD28 as 100% activation; read-out: INFg Whole Blood Normalized Agonist EC50
[2] = Homo sapiens, 24 h, human whole blood; normalized to 3 μM reference compound with anti-CD3 plus anti-CD28 as 100% activation; read-out: INFg Whole Blood Normalized Agonist EC50
[3] = human whole blood, anti-CD3 plus anti-CD28, 24 hours; 3 μM reference compound = 100% activation; read-out: INFg Whole Blood Normalized Agonist EC50

Compound | IC50 (human DGKζ; liposome (LIPGLO) assay) [µM] | IC50 (human DGKα; liposome (LIPGLO) assay) [µM] | further results
C[C@@H]1CN(c2cc(=O)n(C)c3ccc(C#N)nc23)[C@@H](C)CN1C(c1ccccc1)c1ccc(F)cc1 (single isomer, unassigned) [Example 184] | – | – | EC50 (Human venous whole blood; [1]): 0.57 µM
CC(c1ccc(OC(F)(F)F)cc1F)N1C[C@H](C)N(c2cc(=O)n(C)c3ccc(C#N)nc23)C[C@H]1C (single isomer, unassigned) [Example 439] | 0.32 | – | EC50 (Human venous whole blood; [1]): 0.68 µM
C[C@@H]1CN(c2c(C#N)c(=O)n(C)c3ccc(C#N)nc23)CCN1C(c1ccccc1)c1ccc(Cl)cc1 (single isomer, unassigned) [Example 887] | – | – | EC50 (Human venous whole blood; read-out: INFg Whole Blood Normalized Agonist EC50; human whole blood, anti-CD3 plus anti-CD28, 24 hours; 3 μM reference compound = 100% activation): 1.6 µM
CCC(c1cc(Cl)cc2c1OCC2)N1C[C@H](C)N(c2cc(=O)n(C)c3ccc(C#N)nc23)C[C@H]1C (single isomer, unassigned) [Example 357] | 0.89 | – | EC50 (Human venous whole blood; [1]): 13 µM
C[C@@H]1CN(c2c(F)c(=O)n(C)c3ccc(C#N)nc23)[C@@H](C)CN1C(c1ccc(F)cc1)c1ccc(C(F)(F)F)cc1 (stereo partly drawn) [Example 326, 7-fluoro-8-((2S,5R)-4-((4-fluorophenyl)(4-(trifluoromethyl)phenyl)methyl)-2,5-dimethylpiperazin-1-yl)-5-methyl-6-oxo-5,6-dihydro-1,5-naphthyridine-2-carbonitrile] | 6.5 | – | EC50 (Human venous whole blood; [1]): 20 µM
CC(c1ccc(P(C)(C)=O)cc1)N1C[C@H](C)N(c2c(C#N)c(=O)n(C)c3ccc(C#N)nc23)C[C@H]1C (single isomer, unassigned) [Example 1294] | 220 | – | EC50 (Human venous whole blood; [2]): 20 µM
COCc1ccc(C(C)N2C[C@H](C)N(c3cc(=O)n(C)c4ccc(C#N)nc34)C[C@H]2C)cc1 (stereo partly drawn) [Example 1266] | – | – | EC50 (Human venous whole blood; [1]): 1.4 µM
C[C@@H]1CN(c2cc(=O)n(C)c3ccc(C#N)nc23)[C@@H](C)CN1C(c1ccc(F)cc1)c1nc(C2CCN(C)CC2)no1 (single isomer, unassigned) [Example 751] | – | – | IC50 (human DGKζ; DGKζ liposome (LIPGLO) assay): 17 µM; EC50 (Human venous whole blood; [3]): 4.5 µM
COc1ccc(C(c2ccc(F)cc2)N2C[C@H](C)N(c3c(C#N)c(=O)n(C)c4ccc(C#N)nc34)C[C@H]2C)nc1 (stereo partly drawn) [Example 838] | – | – | IC50 (human DGKζ; DGKζ liposome (LIPGLO) assay): 2.1 µM; EC50 (Human venous whole blood; Homo sapiens, 24 h, human whole blood, anti-CD3 plus anti-CD28, 24 hours; 3 μM reference compound = 100% activation; read-out: INFg Whole Blood Normalized Agonist EC50): 17 µM
CC(c1ccc(OC(F)(F)F)cc1)N1C[C@H](C)N(c2cc(=O)n(C)c3ccc(C#N)nc23)C[C@H]1CN(C)C (stereo partly drawn) [Example 1413, 8-((2S,5R)-5-((dimethylamino)methyl)-2-methyl-4-(1-(4-(trifluoromethoxy)phenyl)ethyl)piperazin-1-yl)-5-methyl-6-oxo-5,6-dihydro-1,5-naphthyridine-2-carbonitrile] | 1.8 | – | EC50 (Human venous whole blood; [2]): 1.4 µM
Cc1noc(C(c2ccc(F)cc2)N2C[C@H](C)N(c3cc(=O)n(C)c4ccc(C#N)nc34)C[C@H]2C)n1 (stereo partly drawn) [Example 746] | – | – | IC50 (human DGKζ; DGKζ liposome (LIPGLO) assay): 0.17 µM; EC50 (Human venous whole blood; [3]): 0.96 µM
CCC(c1cc(OC(F)(F)F)ccc1F)N1C[C@H](C)N(c2cc(=O)n(C)c3ccc(C#N)nc23)C[C@H]1C (stereo partly drawn) [Example 1206] | – | – | EC50 (Human venous whole blood; [1]): 2.1 µM
C[C@@H]1CN(c2c(C#N)c(=O)n(C)c3ccc(C#N)nc23)CCN1Cc1cccc(OC(F)(F)F)c1 [Example 1008] | – | – | IC50 (human DGKα; DGKα liposome (LIPGLO) assay): 1.7 µM; IC50 (human DGKζ; DGKζ liposome (LIPGLO) assay): 7.1 µM
C[C@@H]1CN(c2c(C#N)c(=O)n(C)c3ccc(C#N)nc23)CCN1Cc1c(F)cccc1Cl [Example 984] | – | – | IC50 (human DGKα; DGKα liposome (LIPGLO) assay): 1.5 µM; IC50 (human DGKζ; DGKζ liposome (LIPGLO) assay): 0.88 µM
C[C@@H]1CN(c2cc(=O)n(C)c3ccc(C#N)nc23)[C@@H](C)CN1C(c1ccc(F)cc1)c1ccccc1N1CCOCC1 (single isomer, unassigned) [Example 665] | > 250 | > 250 | –
Cc1ccc(C(c2ccc(Cl)cc2)N2C[C@H](C)N(c3c(C#N)c(=O)n(C)c4ccc(C#N)nc34)C[C@H]2C)cc1 (stereo partly drawn) [Example 826] | – | – | IC50 (human DGKα; DGKα liposome (LIPGLO) assay): 43 µM; IC50 (human DGKζ; DGKζ liposome (LIPGLO) assay): 3.1 µM
CC[C@@H]1CN(c2cc(=O)n(C)c3ccc(C#N)nc23)[C@@H](C)CN1C(C)c1ccc(F)cc1F (single isomer, unassigned) [Example 1087] | 0.086 | 0.072 | –
CC(c1ccc(F)cc1)N1C[C@H](C)N(c2c(C#N)c(=O)n(C)c3ccc(C#N)nc23)C[C@H]1C (single isomer, unassigned) [Example 783] | – | – | IC50 (human DGKα; DGKα liposome (LIPGLO) assay): 1.2 µM; IC50 (human DGKζ; DGKζ liposome (LIPGLO) assay): > 250 µM

Compound | IC50 (human DGKζ; liposome (LIPGLO) assay) [µM] | IC50 (human DGKα; liposome (LIPGLO) assay) [µM] | further results
COC(=O)c1ccc(C(C)N2C[C@H](C)N(c3c(C#N)c(=O)n(C)c4ccc(C#N)nc34)C[C@H]2C)cc1 (single isomer, unassigned) [Example 793] | – | – | IC50 (human DGKα; DGKα liposome (LIPGLO) assay): 6.9 µM; IC50 (human DGKζ; DGKζ liposome (LIPGLO) assay): 11 µM
CCC(c1ccc(OC(F)(F)F)cc1F)N1C[C@H](CC)N(c2cc(=O)n(C)c3ccc(C#N)nc23)C[C@H]1CC (single isomer, unassigned) [Example 1057] | 0.04 | 0.023 | –
CC(C)C(C)(F)C1CN(c2cc(=O)n(C)c3ccc(C#N)nc23)CCN1C(c1ccc(F)cc1)c1ccc(F)cc1 (single isomer, unassigned) [Example 91, 8-(4-(bis(4-fluorophenyl)methyl)-3-(2-fluoro-3-methylbutan-2-yl)piperazin-1-yl)-5-methyl-6-oxo-5,6-dihydro-1,5-naphthyridine-2-carbonitrile, TFA] | 240 | 240 | –
CCC(c1ccc(OC(F)(F)F)cc1F)N1C[C@H](CC)N(c2cc(=O)n(C)c3ccc(C#N)nc23)C[C@H]1CC (single isomer, unassigned) [Example 1058] | 0.57 | 0.75 | –
Cn1c(=O)cc(N2CCN(C(c3ccc(F)cc3)c3ccc(F)cc3)CC2CF)c2nc(C#N)ccc21 (racemic) [Example 149, 8-(4-(bis(4-fluorophenyl)methyl)-2-(fluoromethyl)piperazin-1-yl)-5-methyl-6-oxo-5,6-dihydro-1,5-naphthyridine-2-carbonitrile] | 21 | 35 | –
C[C@@H]1CN(c2cc(=O)n(C)c3ccc(C#N)nc23)[C@@H](C)CN1C(c1cccc(F)c1)c1ccc(C(F)(F)F)cn1 (stereo partly drawn) [Example 370, 8-((2S,5R)-4-((3-fluorophenyl)(5-(trifluoromethyl)pyridin-2-yl)methyl)-2,5-dimethylpiperazin-1-yl)-5-methyl-6-oxo-5,6-dihydro-1,5-naphthyridine-2-carbonitrile] | 0.76 | 1.1 | –
Cn1c(=O)cc(N2CC(C3CC3)N(C(c3ccc(F)cc3)c3ccc(F)cc3)CC2C2CC2)c2nc(C#N)ccc21 (single isomer, unassigned) [Example 152, 8-(4-(bis(4-fluorophenyl)methyl)-2,5-dicyclopropylpiperazin-1-yl)-5-methyl-6-oxo-5,6-dihydro-1,5-naphthyridine-2-carbonitrile] | 240 | 7.7 | –
CC[C@@H]1CN(c2cc(=O)n(C)c3ccc(C#N)nc23)[C@@H](C)CN1C(C)c1ccc(F)cc1F (single isomer, unassigned) [Example 1088] | 4.9 | 3.4 | –
C[C@@H]1CN(c2c(C#N)c(=O)n(C)c3ccc(C#N)nc23)CCN1C(c1ccc(F)cc1)c1ccncn1 (single isomer, unassigned) [Example 313] | 4.8 | 2.3 | –
C[C@@H]1CN(C(c2ccc(F)cc2)c2ccc(F)cc2)[C@@H](C)CN1c1c(C#N)c(=O)n(C)c2ccc(Br)nc12 [Example 5, 4-((2R,5S)-4-(bis(4-fluorophenyl)methyl)-2,5-dimethylpiperazin-1-yl)-6-bromo-1-methyl-2-oxo-1,2-dihydro-1,5-naphthyridine-3-carbonitrile] | 42 | 23 | –
CC[C@@H]1CN(c2cc(=O)n(C)c3ccc(C#N)nc23)[C@@H](C)CN1C(c1cccc(F)c1)c1ccc(F)cn1 (single isomer, unassigned) [Example 1108] | 0.09 | 0.031 | –
Cc1ccnc(C(c2ccc(Cl)cc2)N2C[C@H](C)N(c3cc(=O)n(C)c4ccc(C#N)nc34)C[C@H]2C)c1 (single isomer, unassigned) [Example 364] | 3.9 | 1.6 | –
Cc1ccc(C(c2ccc(Cl)cn2)N2CCN(c3c(C#N)c(=O)n(C)c4ccc(C#N)nc34)C[C@H]2C)cc1 (single isomer, unassigned) [Example 937] | – | – | IC50 (human DGKα; DGKα liposome (LIPGLO) assay): 0.34 µM; IC50 (human DGKζ; DGKζ liposome (LIPGLO) assay): 1.1 µM
C[C@@H]1CN(c2cc(=O)n(C)c3ccc(C#N)nc23)[C@@H](C)CN1C(c1ccc(OC(F)(F)F)cc1F)C1CC1 (stereo partly drawn) [Example 481, 8-((2S,5R)-4-(cyclopropyl(2-fluoro-4-(trifluoromethoxy)phenyl)methyl)-2,5-dimethylpiperazin-1-yl)-5-methyl-6-oxo-5,6-dihydro-1,5-naphthyridine-2-carbonitrile] | 1.8 | 1.4 | –
Cc1ccc(C(c2cccc(F)c2)N2C[C@H](C)N(c3cc(=O)n(C)c4ccc(C#N)nc34)C[C@H]2CO)nc1 (stereo partly drawn) [Example 1153] | 32 | 6.6 | –
CC(c1ccccn1)N1CCN(c2c(C#N)c(=O)n(C)c3ccc(C#N)nc23)C[C@H]1C (single isomer, unassigned) [Example 965] | – | – | IC50 (human DGKα; DGKα liposome (LIPGLO) assay): 0.96 µM; IC50 (human DGKζ; DGKζ liposome (LIPGLO) assay): 60 µM
C[C@@H]1CN(c2cc(=O)n(C)c3ccc(C#N)nc23)[C@@H](C)CN1C(c1cccc(F)c1)c1ccc(C(F)(F)F)cn1 (single isomer, unassigned) [Example 371] | 2.1 | 3 | –
